The source of these data is patent US20170020900A1, “METHODS FOR SCREENING ANTIMICROBIAL AND ANTIVIRAL COMPOUNDS AND USES THEREOF” (The General Hospital Corporation, priority 2006, published 2017).

The test system of assay [1] is E. faecalis strain MMH594. As to the kind of experiment: C. elegans-E. faecalis liquid infection (curing) assay in 96-well plates, worm survival. The class given is in vivo, Enterococcus faecalis. The following applies: glp-4, sek-1 C. elegans infected with E. faecalis MMH594. On the procedure:
(§1) Worm survival was scored manually after 6 days of incubation. […] MICs were determined against E. faecalis strain MMH594 using 2-fold dilution in BHI media according to the broth microdilution protocol of the NCCLS (CLSI) (National Committee for Clinical Laboratory Standards, Approved Standard M7-A5; Methods for Dilution Antimicrobial Susceptibility Tests for Bacteria that Grow Aerobically, Villanova, Pa.: NCCLS (2000)).

The test system of assay [2] is E. faecalis. Nature of the assay: Bacterial colonization of the nematode intestine (CFU per worm). The note with it: 100% = 3.28 × 10^4 CFU/worm. The class given is in vivo, Enterococcus faecalis. As to the method: Infected worms were washed three times with M9 buffer containing 1 mM sodium azide. Approximately 10 worms were transferred to a 2 ml microcentrifuge tube and the volume was brought to 250 μl. Fifty μl of buffer was removed and plated to determine the number of external CFU.

Assay [3] deals with E. faecalis strain MMH594. As to the kind of experiment: MIC, 2-fold broth microdilution in BHI media (NCCLS). The note with it: E30 value is at its aqueous solubility limit. The class given is cell-based, Enterococcus faecalis. On the procedure:
as §1

Assay [4] relates to C. albicans strain MLR62. Nature of the assay: C. elegans liquid medium killing assay with established antifungals. The class given is in vivo, Candida albicans. As to the method:
(§2) Candida strains were inoculated in 2 ml of YPD and grown at 30° C. for 24 hours. Lawns were prepared by spreading 10 μl of each culture on 35 mm tissue-culture plates (Falcon) containing solid brain heart infusion (BHI) media (Difco) with kanamycin (45 μg/ml), ampicillin (100 μg/ml), and streptomycin (100 μg/ml). The plates were incubated at 30′C for 24 hours followed by 25° C. for 24 hours. glp-4; sek-1 and glp-4 worms were grown at 15° C. until they reached the L2 stage, and then they were transferred to 25° C. for 24 h. N2 wild-type worms were grown at 15° C. for 72 h, until they reached the L4 stage. Approximately 100 worms were picked onto each lawn and allowed to feed for 30 minutes to 2 hours. The worms were washed off the plates with M9 buffer and allowed to crawl on unseeded BHI plates to remove yeast cells from their cuticles. Roughly 70-80 worms were then picked to wells in a six-well microtiter dish that contained 1.5 ml liquid medium of 79% M9 buffer, 20% BHI, 2 μM cholesterol and 90 μg/ml kanamycin. The plates were incubated at 25° C. overnight and then examined at 24-hour intervals for survival.
To develop a system that allows high throughput screening for antifungal compounds, we first evaluated whether established antifungals prolong the survival of nematodes infected with Candida spp. For this, we used different C. albicans isolates as well as non-albicans strains, including those used as reference strains by clinical microbiology laboratories ([…], N. C. F. C. L. Methods for antifungal disk diffusion susceptibility testing of yeasts; approved guideline M44-A. (National Committee for Clinical Laboratory Standards, Wayne, Pa., 2004)).

In assay [5] the test system is DAY185. The following applies: Candida strain DAY185; cited from earlier work.
Assay [6] relates to C. albicans MLR62. Nature of the assay: Fungal burden within C. elegans (cfu per worm). The class given is in vivo, Candida albicans. The note with it: for concentration of Candida cfu in the nematodes: data not shown. On the procedure:
The number of C. albicans colony forming units in C. elegans was quantified based on the protocol detailed by Tang et al., Infect. Immun. 73:8219 (2005) and Garsin et al., Proc. Natl. Acad Sci. USA 98:10892 (2001) with a few modifications. C. albicans strain MLR62 lawns were prepared on BHI as described above. C. elegans glp-4; sek-1 worms were exposed to the lawns for 30 minutes and then moved to liquid media and incubated at 25° C. in the presence or absence of antifungal agents. At appropriate time points, 3 groups of 10 worms each were washed twice in 8 μl drops of M9 buffer on BHI agar plates, in order to remove surface Candida. Each group of 10 worms was then disrupted using a Pellet Pestle Motor (Kontes) and plated on YPD agar containing kanamycin (45 μg/ml), ampicillin (100 μg/ml), and streptomycin (100 μg/ml). The plates were incubated for 48 hours at 30′C and colonies were counted.

For assay [7], the system named is C. parapsilosis ATCC#22019. The note with it: cited from earlier work.
Assay [8] concerns C. krusei ATCC#6258. The note with it: cited from earlier work.
Assay [9] concerns C. albicans strain MLR62. As to the kind of experiment: C. elegans-Candida killing assay, compound library screen in 96-well plates. The class given is in vivo, Candida albicans. The following applies: positive control of the screen; <25% alive in PBS. As to the method:
For testing the efficacy of chemical compounds, C. albicans strain MLR62 was inoculated into 2 ml of YPD and grown at 30° C. for 24 hours; 10 μl of the culture was spread on 35-mm tissue-culture plates (Falcon) containing brain heart infusion (BHI) agar (Difco) with kanamycin (45 μg/ml), ampicillin (100 μg/ml), and streptomycin (100 μg/ml). The plates were incubated at 30° C. for 24 hours. C. elegans animals at the L4 developmental stage (grown as detailed above under C. elegans liquid medium killing assays) were transferred from a lawn of E. coli HB101 onto C. albicans lawns on BHI medium, incubated at 25° C. for 30 minutes, and then pipetted in 50 μl into 96-well plate wells that contained 100 μl liquid media (79% of M9 buffer, 20% BHI media, 2 μM cholesterol and 90 μg/ml kanamycin). C. elegans glp-4; sek-1 nematodes were pipetted into 96-well plates that contained compounds from chemical libraries. Library 1361 was assembled by Biomol and contains well-characterized compounds that affect many different aspects of cellular pathways. The NINDS custom collection (plates 501-503) was put together by MicroSource Discovery Systems for the National Institute of Neurological Disorders and Stroke (NINDS), the Huntington's Disease Society of America (HDSA), the Amyotrophic Lateral Sclerosis (ALS) Association, and the Hereditary Disease Foundation (HDF). It mostly contains FDA approved drugs. The Prestwick library (plate 1569) contains compounds that are known to be safe and bioactive in humans. The majority of the compounds are marketed drugs.
On day 6, nematodes were evaluated for survival, filament formation and optical density. The plates were incubated at 25° C. and examined on day 6 for survival with a Nikon SMZ645 dissecting microscope. In addition, images were obtained using a CellWorx High Content Cell Analysis System (Applied Precision) at 4× magnification. Dead worms were counted but not removed. […] Each compound was also scored by the number of dead worms in the well that developed hyphea. […] Compounds were categorized as having a minimal effect on filament formation if 25-75% of the dead worms developed hyphea.
Approximately 25 nematodes were used to analyze each chemical compound tested. Two controls were used in all plates. […] In this pilot screen, we considered a compound as a “hit” when survival in the compound well with was 50% and above of the median survival of the control wells. Depending on the compound library, the final concentration of the compounds was 33.33 μg/ml, 13.33 μg/ml, or […].

Assay [10] concerns C. albicans ATCC#90028. The note with it: cited from earlier work.
The subject of assay [11] is C. krusei ATCC#6258. The class given is in vivo. The following applies: fluconazole 32 μg/ml, fluconazole-resistant strain. As to the method: as §2
To develop a system that allows high throughput screening for antifungal compounds, we first evaluated whether established antifungals prolong the survival of nematodes infected with Candida spp. […]

[12] abbreviates: caspofungin 8 μg/ml, amphotericin B 16 μg/ml, fluconazole 32 μg/ml, FIG. 17A.

≈ marks a conversion by molar mass, not a printed value. A value given as a limit tells only on which side of the number the result lay.

Consider `O=c1oc2ccccc2c(O)c1/C(=C/C(=N/Nc1ccccc1)c1ccc(-c2ccc(Br)cc2)cc1)c1ccccc1` [Compound G1], for which, in assay [1], the “Therapeutic Concentration” value is 25 µg/mL. Further, the “Fold Survival vs untreated” value in assay [1] (untreated = 24% survival) is recorded as 3.3. Moreover, the “Amt. Colonization vs untreated” value in assay [2] is 6%. Further, the MIC in [3] turned out to be 31.3 mg/L (≈ 51 µM).

On to `C[C@@H]1[C@H](O)[C@@H](C)/C=C/C=C/C=C/C=C/C=C/C=C/C=C/[C@H](O[C@@H]2O[C@H](C)[C@@H](O)[C@H](N)[C@@H]2O)C[C@@H]2O[C@](O)(C[C@@H](O)C[C@@H](O)[C@H](O)CC[C@@H](O)C[C@@H](O)CC(=O)O[C@H]1C)C[C@H](O)[C@H]2C(=O)O` [amphotericin B], for which the “prolongation of nematode survival” value in assay [4] (in vivo) was “effective”. The MIC was 0.5 mg/L (≈ 0.541 µM) in assay [5], “MIC: 2 μg/ml for amphotericin B^d,” in [7] and “MIC: 2 μg/ml for amphotericin B^d,” in assay [8]. In addition, the “concentration of Candida cfu in the nematodes” value in assay [6] is on record as “significantly decreased”.

For `CC[C@H](C)C[C@H](C)CCCCCCCCC(=O)N[C@H]1C[C@@H](O)[C@@H](NCCN)NC(=O)[C@@H]2[C@@H](O)CCN2C(=O)[C@H]([C@H](O)CCN)NC(=O)[C@H]([C@H](O)[C@@H](O)c2ccc(O)cc2)NC(=O)[C@@H]2C[C@@H](O)CN2C(=O)[C@H]([C@@H](C)O)NC1=O` [caspofungin], the “prolongation of nematode survival” value in [4] (setting [12]) is on record as “effective”. The “lowest effective concentration (effective at concentrations as low as)” value in assay [4] (nematode survival, P<0.0001) was 1 µg/mL. In addition, the MIC was 2 mg/L (≈ 1.83 µM) in assay [5], 0.5 to 2 mg/L in [7], 0.5 to 2 mg/L in assay [8] and 1 μg/ml for caspofungin in assay [10]. In addition, in [6] (8 μg/ml, untreated 170.8±63.5 cfu per worm, P<0.001), the “fungal burden, average colony-forming units” value was found to be 0.3±0.2 cfu per worm. In [9], the “nematode survival at day 6” value is recorded as greater than 75%.

Take `OC(Cn1cncn1)(Cn1cncn1)c1ccc(F)cc1F` [fluconazole]: in assay [4] (setting [12]), the “prolongation of nematode survival” value is “effective”. Besides, the MIC in [5] was 2 mg/L (≈ 6.53 µM); in assay [7] it was 2 mg/L (≈ 6.53 µM); in [8] it was 32 mg/L (≈ 104 µM). The “concentration of Candida cfu in the nematodes” value in assay [6] is given as “significantly decreased”. The “effect on nematode survival” value in assay [11] is “no effect”.
